Reference: ChEMBL document CHEMBL1201861, “Genomics of Drug Sensitity in Cancer screening data, Wellcome Trust Sanger Institute”
Several values for one entry are separate records, joined by “and”; a condition that tells them apart may be missing. Identical values can stand only once.

What was measured:
Experiment in all cases: cells
IST-MEL1 = type: functional, cell-based, Homo sapiens; settings: ist-mel1;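 note: growth inhibition of the cell line, read out with a cell viability assay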
Description: SANGER: Inhibition of human IST-MEL1 cell growth in a cell viability assay.

COR-L88 = type: functional, cell-based; settings: Homo sapiens;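 note: growth inhibition of COR-L88 cells, read out with a cell viability assay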
Description: SANGER: Inhibition of human COR-L88 cell growth in a cell viability assay.

MLMA = type: functional, cell-based, Homo sapiens;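 note: growth inhibition of MLMA cells (human), determined through a cell viability readout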
Description: SANGER: Inhibition of human MLMA cell growth in a cell viability assay.

C32 = type: functional, cell-based, Homo sapiens; settings: c32;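 note: cell viability assay, with IC50 reflecting inhibition of C32 cell growth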
Description: SANGER: Inhibition of human C32 cell growth in a cell viability assay.

HCT-116 = type: functional, cell-based, Homo sapiens; settings: hct-116
Description: SANGER: Inhibition of human HCT-116 cell growth in a cell viability assay.

Lu-65 = type: functional, cell-based; settings: Homo sapiens;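 note: growth inhibition of Lu-65 cancer cells, read out by a cell viability assay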
Description: SANGER: Inhibition of human LU-65 cell growth in a cell viability assay.

GMS-10 = type: functional, cell-based, Homo sapiens;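 note: growth inhibition of GMS-10 cells, read out as cell viability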
Description: SANGER: Inhibition of human GMS-10 cell growth in a cell viability assay.

OMC-1 = type: functional, cell-based, Homo sapiens; settings: omc-1;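 note: growth inhibition of the OMC-1 cell line, measured by a cell viability assay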
Description: SANGER: Inhibition of human OMC-1 cell growth in a cell viability assay.

OVCAR-3 = type: functional, cell-based, Homo sapiens; settings: ovcar-3;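 note: growth inhibition of human OVCAR-3 cells, determined by a cell viability assay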
Description: SANGER: Inhibition of human OVCAR-3 cell growth in a cell viability assay.

EW-11 = type: functional, cell-based, Homo sapiens; settings: ew-11;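 note: growth inhibition of human EW-11 cells, measured with a cell viability assay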
Description: SANGER: Inhibition of human EW-11 cell growth in a cell viability assay.

MIA PaCa-2 = type: functional, cell-based, Homo sapiens; settings: mia paca-2;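 note: growth inhibition of MIA PaCa-2 cells, read out with a cell viability assay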
Description: SANGER: Inhibition of human MIA-PaCa-2 cell growth in a cell viability assay.

HMV-2 cell line = type: functional, cell-based, Homo sapiens; settings: hmv-2;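 note: growth inhibition of HMV-II cells, read out with a cell viability assay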
Description: SANGER: Inhibition of human HMV-II cell growth in a cell viability assay.

QIMR-WIL = type: functional, cell-based; settings: Homo sapiens;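 note: growth inhibition of QIMR-WIL cells, read out with a cell viability assay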
Description: SANGER: Inhibition of human QIMR-WIL cell growth in a cell viability assay.

KINGS-1 = type: functional, cell-based, Homo sapiens;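 note: cell viability assay measuring suppression of KINGS-1 cell growth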
Description: SANGER: Inhibition of human KINGS-1 cell growth in a cell viability assay.

SW756 = type: functional, cell-based, Homo sapiens;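 note: growth inhibition of human SW756 cells, read out with a cell viability assay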
Description: SANGER: Inhibition of human SW756 cell growth in a cell viability assay.

NCI-H596 = type: functional, cell-based, Homo sapiens; settings: nci-h596;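 note: growth inhibition of NCI-H596 cells, read out with a cell viability assay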
Description: SANGER: Inhibition of human NCI-H596 cell growth in a cell viability assay.

NCI-H2228 = type: functional, cell-based, Homo sapiens; settings: nci-h2228;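 note: growth inhibition of human NCI-H2228 cells, read out by a cell viability assay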
Description: SANGER: Inhibition of human NCI-H2228 cell growth in a cell viability assay.

VA-ES-BJ = type: functional, cell-based, Homo sapiens;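 note: growth inhibition of the VA-ES-BJ cell line, read out by a cell viability assay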
Description: SANGER: Inhibition of human VA-ES-BJ cell growth in a cell viability assay.

DOK = type: functional, cell-based, Homo sapiens; settings: dok;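 note: cell viability assay read-out, values reflect inhibition of cell growth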
Description: SANGER: Inhibition of human DOK cell growth in a cell viability assay.

LN-405 = type: functional, cell-based, Homo sapiens
Description: SANGER: Inhibition of human LN-405 cell growth in a cell viability assay.

TGBC1TKB = type: functional, cell-based, Homo sapiens; settings: tgbc1tkb;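 note: growth inhibition of TGBC1TKB cells, read out by a cell viability assay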
Description: SANGER: Inhibition of human TGBC1TKB cell growth in a cell viability assay.

UACC-257 = type: functional, cell-based, Homo sapiens
Description: SANGER: Inhibition of human UACC-257 cell growth in a cell viability assay.

NCI-N87 = type: functional, cell-based, Homo sapiens; settings: nci-n87;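 note: growth inhibition of human NCI-N87 cells, read out with a cell viability assay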
Description: SANGER: Inhibition of human NCI-N87 cell growth in a cell viability assay.

NCI-H1793 = type: functional, cell-based, Homo sapiens; settings: nci-h1793;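 note: cell growth inhibition, read out by a cell viability assay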
Description: SANGER: Inhibition of human NCI-H1793 cell growth in a cell viability assay.

SiHa = type: functional, cell-based, Homo sapiens;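 note: Viability-based readout of growth inhibition in SiHa cells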
Description: SANGER: Inhibition of human SiHa cell growth in a cell viability assay.

Ca-Ski = type: functional, cell-based; settings: Homo sapiens;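 note: cell viability assay measuring inhibition of Ca-Ski cell growth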
Description: SANGER: Inhibition of human Ca-Ski cell growth in a cell viability assay.

NCI-H69 = type: functional, cell-based; settings: Homo sapiens;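 note: growth inhibition of the cell line, read out with a cell viability assay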
Description: SANGER: Inhibition of human NCI-H69 cell growth in a cell viability assay.

SF-126 = type: functional, cell-based, Homo sapiens; settings: sf-126;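 note: growth inhibition of human SF126 cells, read out with a cell viability assay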
Description: SANGER: Inhibition of human SF126 cell growth in a cell viability assay.

SW1990 = type: functional, cell-based, Homo sapiens; settings: sw1990;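 note: cell growth inhibition determined with a viability assay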
Description: SANGER: Inhibition of human SW1990 cell growth in a cell viability assay.

Huh-7 = type: functional, cell-based, Homo sapiens;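 note: HuH-7 cell growth inhibition, read out with a cell viability assay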
Description: SANGER: Inhibition of human HuH-7 cell growth in a cell viability assay.

NCI-H810 = type: functional, cell-based, Homo sapiens;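 note: IC50 reflects inhibition of cancer cell line growth, read out with a cell viability assay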
Description: SANGER: Inhibition of human NCI-H810 cell growth in a cell viability assay.

SW684 = type: functional, cell-based, Homo sapiens;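 note: growth inhibition of human SW684 cells, measured by a cell viability assay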
Description: SANGER: Inhibition of human SW684 cell growth in a cell viability assay.

HCC 2998 = type: functional, cell-based, Homo sapiens; settings: hcc 2998;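 note: growth inhibition of human HCC2998 cells, measured with a cell viability read-out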
Description: SANGER: Inhibition of human HCC2998 cell growth in a cell viability assay.

IGR-1 = type: functional, cell-based, Homo sapiens; settings: igr-1;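 note: growth inhibition of human IGR-1 cells, read out with a cell viability assay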
Description: SANGER: Inhibition of human IGR-1 cell growth in a cell viability assay.

GI-ME-N = type: functional, cell-based, Homo sapiens; settings: gi-me-n;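 note: growth inhibition of human GI-ME-N cells, read out with a cell viability assay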
Description: SANGER: Inhibition of human GI-ME-N cell growth in a cell viability assay.

BFTC-909 = type: functional, cell-based, Homo sapiens; settings: bftc-909
Description: SANGER: Inhibition of human BFTC-909 cell growth in a cell viability assay.

KYSE-450 = type: functional, cell-based; settings: Homo sapiens;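 note: cell growth inhibition measured by a viability assay in human KYSE-450 cells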
Description: SANGER: Inhibition of human KYSE-450 cell growth in a cell viability assay.

DMS-273 = type: functional, cell-based, Homo sapiens
Description: SANGER: Inhibition of human DMS-273 cell growth in a cell viability assay.

GT3TKB = type: functional, cell-based, Homo sapiens; settings: gt3tkb;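 note: growth inhibition of the cell line, read out with a cell viability assay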
Description: SANGER: Inhibition of human GT3TKB cell growth in a cell viability assay.

NB69 = type: functional, cell-based, Homo sapiens;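 note: growth inhibition of NB69 cells, determined by a cell viability assay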
Description: SANGER: Inhibition of human NB69 cell growth in a cell viability assay.

5637 = type: functional, cell-based, Homo sapiens
Description: SANGER: Inhibition of human 5637 cell growth in a cell viability assay.

CHP-212 = type: functional, cell-based, Homo sapiens; settings: chp-212
Description: SANGER: Inhibition of human CHP-212 cell growth in a cell viability assay.

NCI-H1792 = type: functional, cell-based, Homo sapiens; settings: nci-h1792;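 note: growth inhibition of human NCI-H1792 cells, read out as cell viability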
Description: SANGER: Inhibition of human NCI-H1792 cell growth in a cell viability assay.

NCI-H1395 = type: functional, cell-based, Homo sapiens; settings: nci-h1395;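 note: cell viability assay read-out quantifying reduced proliferation of human NCI-H1395 cells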
Description: SANGER: Inhibition of human NCI-H1395 cell growth in a cell viability assay.

IST-MES1 = type: functional, cell-based, Homo sapiens; settings: ist-mes1;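 note: growth inhibition of IST-MES1 cells, measured with a cell viability assay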
Description: SANGER: Inhibition of human IST-MES1 cell growth in a cell viability assay.

NCI-H2122 = type: functional, cell-based, Homo sapiens; settings: nci-h2122;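 note: growth inhibition of the cells, read out with a cell viability assay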
Description: SANGER: Inhibition of human NCI-H2122 cell growth in a cell viability assay.

LCLC-103H cell line = type: functional, cell-based, Homo sapiens
Description: SANGER: Inhibition of human LCLC-103H cell growth in a cell viability assay.

Ca9-22 = type: functional, cell-based, Homo sapiens; settings: ca9-22;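 note: growth inhibition of Ca9-22 cells, read out with a cell viability assay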
Description: SANGER: Inhibition of human Ca9-22 cell growth in a cell viability assay.

DU-145 = type: functional, cell-based, Homo sapiens; settings: du-145
Description: SANGER: Inhibition of human DU-145 cell growth in a cell viability assay.

In the case of `Cc1cc([C@@H](C)Nc2ccccc2C(=O)O)c2nc(N3CCOCC3)cc(=O)n2c1` [AZD-6482], the IC50 (IST-MEL1) is reported as 2.52 µM and > 5.12 µM, the IC50 (COR-L88) is reported as > 5.12 µM and the IC50 (MLMA; Homo sapiens, MLMA) is reported as 3.72 µM. For the same compound, the IC50 (MLMA; mlma) was 4.88 µM, the IC50 (C32) was > 5.12 µM and the IC50 (HCT-116) was > 5.12 µM. The IC50 (Lu-65) was > 5.12 µM, the IC50 (GMS-10; Homo sapiens, GMS-10) was > 5.12 µM and the IC50 (GMS-10; gms-10) was > 5.12 µM. For the same compound, the IC50 (OMC-1) was > 5.12 µM, the IC50 (OVCAR-3) was 0.679 µM and 3.92 µM and the IC50 (EW-11) was > 5.12 µM. For the same compound, the IC50 (MIA PaCa-2) was > 5.12 µM, the IC50 (HMV-2 cell line) was > 5.12 µM and the IC50 (QIMR-WIL) was 3.97 µM. The IC50 (KINGS-1; Homo sapiens, KINGS-1) was > 5.12 µM, the IC50 (KINGS-1; kings-1) was > 5.12 µM and the IC50 (SW756; Homo sapiens, SW756) was > 5.12 µM. The IC50 (SW756; sw756) was > 5.12 µM, the IC50 (NCI-H596) was > 5.12 µM and the IC50 (NCI-H2228) was > 5.12 µM. The IC50 (VA-ES-BJ; Homo sapiens, VA-ES-BJ) was > 5.12 µM, the IC50 (VA-ES-BJ; va-es-bj) was > 5.12 µM and the IC50 (DOK) was 3.85 µM and 1.53 µM. The IC50 (LN-405; Homo sapiens, LN-405) was 2.44 µM, the IC50 (LN-405; ln-405) was 2.9 µM and the IC50 (TGBC1TKB) was > 5.12 µM. The IC50 (UACC-257; Homo sapiens, UACC-257) was > 5.12 µM, the IC50 (UACC-257; uacc-257) was > 5.12 µM and the IC50 (NCI-N87) was > 5.12 µM. For the same compound, the IC50 (NCI-H1793) was > 5.12 µM, the IC50 (SiHa; Homo sapiens, SiHa) was > 5.12 µM and the IC50 (SiHa; siha) was > 5.12 µM. The IC50 (Ca-Ski) was 1.93 µM, the IC50 (NCI-H69) was > 5.12 µM and the IC50 (SF-126) was 4.46 µM and > 5.12 µM. The IC50 (SW1990) was > 5.12 µM, the IC50 (Huh-7; Homo sapiens, Huh-7) was > 5.12 µM and the IC50 (Huh-7; huh-7) was > 5.12 µM. For the same compound, the IC50 (NCI-H810; Homo sapiens, NCI-H810) was > 5.12 µM, the IC50 (NCI-H810; nci-h810) was > 5.12 µM and the IC50 (SW684; Homo sapiens, SW684) was > 5.12 µM. For the same compound, the IC50 (SW684; sw684) was > 5.12 µM, the IC50 (HCC 2998) was > 5.12 µM and the IC50 (IGR-1) was > 5.12 µM. For the same compound, the IC50 (GI-ME-N) was > 5.12 µM, the IC50 (BFTC-909) was > 5.12 µM and the IC50 (KYSE-450) was > 5.12 µM. The IC50 (DMS-273; Homo sapiens, DMS-273) was 4.83 µM, the IC50 (DMS-273; dms-273) was 2.48 µM and the IC50 (GT3TKB) was > 5.12 µM. For the same compound, the IC50 (NB69; Homo sapiens, NB69) was > 5.12 µM, the IC50 (NB69; nb69) was > 5.12 µM and the IC50 5637 was > 5.12 µM. The IC50 (5637; Homo sapiens) was > 5.12 µM, the IC50 (CHP-212) was > 5.12 µM and the IC50 (NCI-H1792) was > 5.12 µM. The IC50 (NCI-H1395) was > 5.12 µM, the IC50 (IST-MES1) was > 5.12 µM and the IC50 (NCI-H2122) was > 5.12 µM. The IC50 (LCLC-103H cell line; Homo sapiens, LCLC-103H) was > 5.12 µM, the IC50 (LCLC-103H cell line; lclc-103h) was > 5.12 µM and the IC50 (Ca9-22) was > 5.12 µM. The IC50 (DU-145) was > 5.12 µM and 1.37 µM.
